Patent publication US20250361269A1, “PEPTIDE EXHIBITING MUSCLE LOSS PREVENTION AND MUSCLE MASS PROMOTION ACTIVITIES, AND USE THEREOF” (CAREGEN CO., LTD., priority 2022, published 2025)

Legend:
[1] = system: C2C12 cells; assay: Western blotting of early differentiation markers in C2C12 myoblasts; format: cell-based, mouse; details: 5, 50, or 100 ug/ml peptide, after three days in differentiation medium, vs CM group
Procedure: In this example, by evaluating changes in the expression of an early differentiation marker protein of C2C12 cells, which are mouse myoblasts, it was to confirm the effects of the peptide according to an example on the differentiation of myoblasts into muscle cells/muscle fibers at an early differentiation stage.
The C2C12 cells were cultured in a DMEM supplemented with 1% P/S and 2% BCS. When the cell confluency reached 70-80%, the cells were seeded into 6-well culture plates. Afterwards, when the cell confluency in the 6-well culture plate reached 100%, the culture medium was replaced with a differentiation medium (supplemented with 1% P/S and 2% horse serum), and 5, 50, or 100 ug/ml of the peptide of SEQ ID NO: 1 was added thereto. Afterwards, the differentiation medium and the same amount of the peptide of SEQ ID NO: 1 were replaced and added, respectively, once every two days. After three days from the first day of medium replacement, the culture was lysed by adding a dissolution buffer thereto, and proteins were obtained by centrifugation at 4° C. and 12,000 rpm for 30 minutes. These proteins were then quantified by using a BCA kit. […] After washing with PBS-T again, the proteins were detected by using Gel Doc (Bio-Rad, Hercules, CA, USA) and Western detection reagents (Elpis Biotech, Daejeon, Korea). […]

[2] = system: C2C12 cells; assay: Immunofluorescence of myogenin (MyoG) in C2C12 myoblasts; format: cell-based, mouse; details: 100 ug/ml peptide, after three days in differentiation medium
Procedure: C2C12 cells were cultured in a DMEM supplemented with 1% P/S and 2% BCS. When the cell confluency reached 70-80%, the cells were seeded into a 6-well culture plate. Afterwards, when the cell confluency in the 6-well culture plate reached 100%, the culture medium was replaced with a differentiation medium (supplemented with 1% P/S and 2% horse serum), and 100 ug/ml of the peptide of SEQ ID NO: 1 was added thereto. Afterwards, the differentiation medium and 100 ug/ml of the peptide were replaced and added, respectively, once every two days. After three days from the first day of medium replacement, the cultured cells were fixed with 4% paraformaldehyde (PFA) at room temperature for 10 minutes and permeabilized with 0.1% triton X-100 for 5 minutes. Afterwards, the fixed cells were mixed with PBS, 10% FBS, and 0.1% triton X-100 for blocking at room temperature for 1 hour, and then treated with primary antibodies (MyoG, Santa Cruz, USA). The resulting cells were incubated for 1 hour at room temperature. Afterwards, the cells were washed, and incubated again with secondary antibodies (goat anti-mouse IgG-TR, Santa Cruz, USA) at room temperature for 30 minutes. Afterwards, the cell nuclei were stained with DAPI (Santa Cruz, USA) and observed under a LEICA fluorescence microscope (TCS SP8, LEICA, Germany).

[3] = system: C2C12 cells; assay: Western blotting of late differentiation marker MyHC in C2C12 myoblasts; format: cell-based, mouse; details: 5, 50, or 100 ug/ml peptide, after 7 days in differentiation medium, vs CM group
Procedure: The C2C12 cells were cultured in a DMEM supplemented with 1% P/S and 2% BCS. When the cell confluency reached 70-80%, the cells were seeded into 6-well culture plates. Afterwards, when the cell confluency in the 6-well culture plate reached 100%, the culture medium was replaced with a differentiation medium (supplemented with 1% P/S and 2% horse serum), and 5, 50, or 100 ug/ml of the peptide of SEQ ID NO: 1 was added thereto. Afterwards, the differentiation medium and the same amount of the peptide of SEQ ID NO: 1 were replaced and added, respectively, once every two days. […] These proteins were then quantified by using a BCA kit. SDS-PAGE was performed on samples containing these proteins to separate the respective proteins which were then electrotransferred onto a membrane. The membrane to which the proteins were attached was blocked by treating with 5% skim milk, and primary antibodies were allowed for a reaction overnight at 4° C. After washing with PBS-T, secondary antibodies were allowed for a reaction at room temperature for 1 hour. After washing with PBS-T again, the proteins were detected by using Gel Doc (Bio-Rad, Hercules, CA, USA) and Western detection reagents (Elpis Biotech, Daejeon, Korea). […]

[4] = system: C2C12 cells; assay: Immunofluorescence of a-actinin in C2C12 myoblasts; format: cell-based, mouse; details: after 7 days in differentiation medium, vs CM group
[5] = system: tibialis anterior (TA) muscle, muscle damage induced by BaCl2; assay: Muscle mass of TA muscle in BaCl2-induced muscle damage animal model; format: in vivo, C57BL/6 mouse; details: 20 mg peptide orally at 1-day intervals, six times; Day 7 after BaCl2 muscle damage
Procedure: In this example, an animal model of muscle damage induced by BaCl2 was used to determine the effect of the peptide according to an embodiment on the muscle loss prevention, by evaluating changes in muscle mass, areas of infiltration of immune cells in muscle tissue, levels of accumulated collagen, and expression levels of proteins constituting muscle fibers and inflammatory proteins. 50 μl of a 1.2% (w/v) BaCl2 aqueous solution was injected into the tibialis anterior (TA) muscle of a 8-week-old male C57BL/6 mouse to induce muscle damage for 1 day. Afterwards, 20 mg of the peptide of SEQ ID NO: 1 was administered orally at a concentration of 0.1 mg/μl at 1-day intervals for a total of six times to the mouse with induced muscle damage. For a positive control group, 0.5 ug of IGF-I was injected intramuscularly at a concentration of 0.01 ug/μl. On Day 7 after inducing the muscle damage, the mouse was sacrificed, and the changes in the TA muscle were visually observed and the mouse was weighed. A non-treated group (Non) was used as a control group, a group (N.C) in which only muscle damage was induced by BaCl2 was used as a negative control group, and a group (P.C) in which muscle damage was induced by BaCl2 and then treated with IGF-I was used as a positive control group.

[6] = system: muscle tissue, muscle damage induced by BaCl2; assay: H&E staining of muscle tissue from BaCl2-induced muscle damage model; format: in vivo, C57BL/6 mouse; details: 20 mg peptide orally, six times, Day 7 after BaCl2 muscle damage
Procedure: (§1) 50 μl of a 1.2% (w/v) BaCl2 aqueous solution was injected into the tibialis anterior (TA) muscle of a 8-week-old male C57BL/6 mouse to induce muscle damage for 1 day. Afterwards, 20 mg of the peptide of SEQ ID NO: 1 was administered orally at a concentration of 0.1 mg/μl at 1-day intervals for a total of six times to the mouse with induced muscle damage. For a positive control group, 0.5 ug of IGF-I was injected intramuscularly at a concentration of 0.01 ug/μl. On Day 7 after inducing the muscle damage, the mouse was sacrificed, and the changes in the TA muscle were visually observed and the mouse was weighed. A non-treated group (Non) was used as a control group, a group (N.C) in which only muscle damage was induced by BaCl2 was used as a negative control group, and a group (P.C) in which muscle damage was induced by BaCl2 and then treated with IGF-I was used as a positive control group. Muscle tissue obtained from the mouse with induced muscle damage of Example 4-1 was washed with PBS at room temperature and then fixed with 4% paraformaldehyde (PFA). Afterwards, the fixed muscle tissue was washed three times with PBS and dehydrated by using a gradient ethanol series (from 70% to 100%). A sample of the muscle tissue was sectioned into 4 μm sections. […]

[7] = system: muscle tissue, muscle damage induced by BaCl2; assay: Sirius red staining of muscle tissue from BaCl2-induced muscle damage model; format: in vivo, C57BL/6 mouse; details: 20 mg peptide orally, six times, Day 7 after BaCl2 muscle damage
Procedure: as §1

[8] = system: muscle tissue, muscle damage induced by BaCl2; assay: Western blotting of protein expression in muscle tissue from BaCl2-induced muscle damage model; format: in vivo, C57BL/6 mouse; details: 20 mg peptide orally, six times, Day 7 after BaCl2 muscle damage
Procedure: 50 μl of a 1.2% (w/v) BaCl2 aqueous solution was injected into the tibialis anterior (TA) muscle of a 8-week-old male C57BL/6 mouse to induce muscle damage for 1 day. Afterwards, 20 mg of the peptide of SEQ ID NO: 1 was administered orally at a concentration of 0.1 mg/μl at 1-day intervals for a total of six times to the mouse with induced muscle damage. For a positive control group, 0.5 ug of IGF-I was injected intramuscularly at a concentration of 0.01 ug/μl. On Day 7 after inducing the muscle damage, the mouse was sacrificed, and the changes in the TA muscle were visually observed and the mouse was weighed. A non-treated group (Non) was used as a control group, a group (N.C) in which only muscle damage was induced by BaCl2 was used as a negative control group, and a group (P.C) in which muscle damage was induced by BaCl2 and then treated with IGF-I was used as a positive control group. The muscle tissue obtained from the mouse with the induced muscle damage of Example 4-1 was lysed by using homogenizer, and the lysate was dissolved by adding a dissolution buffer thereto. The resulting product was centrifuged at 4° C. and 12,000 rpm for 30 minutes to obtain proteins which were then quantified by using a BCA kit. SDS-PAGE was performed on samples containing these proteins to separate the respective proteins which were then electrotransferred onto a membrane. The membrane to which the proteins were attached was blocked by treating with 5% skim milk, and primary antibodies were allowed for a reaction overnight at 4° C. After washing with PBS-T, secondary antibodies were allowed for a reaction at room temperature for 1 hour. After washing with PBS-T again, the proteins were detected by using Gel Doc (Bio-Rad, Hercules, CA, USA) and Western detection reagents (Elpis Biotech, Daejeon, Korea). Here, anti-MyHC (Santa Cruz, USA), anti-α-actinin (Santa Cruz, USA), anti-α-SMA (Abcam, UK), anti-IL-6 (Santa Cruz, USA), and anti-a-tubulin (Santa Cruz, USA) were used as the primary antibodies.

EAEYEHL [peptide of SEQ ID NO: 1]
decreased: expression of IL-6 in damaged tissue [8] | expression of α-SMA, inflammatory protein, in damaged tissue [8]
reduced: area of infiltration of immune cells in the tissue [6] | accumulation of collagen in the tissue [7]
increased: expression of Myf5, early differentiation marker of myoblasts [1] | expression of myogenin (MyoG), early differentiation marker of myoblasts [1] | expression of myogenin (MyoG) [2] | expression of myogenin (MyoG) in the nuclear region of myoblasts [2] | expression of MyHC, late differentiation marker of myoblasts [3] | expression of a-actinin, late differentiation marker of myoblasts [4] | muscle mass of the TA muscle [5] | expression of MyHC, protein constituting muscle fibers, in damaged tissue [8] | expression of α-actinin in damaged tissue [8]
